From the NIST ThermoML archive (doi:10.1016/j.jct.2007.04.004)

Key:
[1] = excess molar enthalpy (molar enthalpy of mixing); xn = mol fraction of the nth substance listed; settings: 298.15 K, 101 kPa, Liquid
[2] = Liquid; for mass density: 101.33 kPa, Pycnometric method; for Normal boiling temperature: Ebulliometric method (Recirculating still)

O=C1CCCCC1 [cyclohexanone] + C[S+](C)[O-]
[1]
Settings	excess molar enthalpy [kJ/mol]
x1 = 0.0386	0.104
x1 = 0.0873	0.237
x1 = 0.1405	0.251
x1 = 0.1917	0.441
x1 = 0.2431	0.505
x1 = 0.3037	0.565
x1 = 0.3596	0.634
x1 = 0.4115	0.672
x1 = 0.5044	0.691
x1 = 0.5686	0.662
x1 = 0.6399	0.613
x1 = 0.7238	0.525
x1 = 0.8119	0.382
x1 = 0.9101	0.201

CC(=O)CC(C)C [4-methylpentan-2-one] + C[S+](C)[O-]
[1]
Settings	excess molar enthalpy [kJ/mol]
x1 = 0.0387	0.132
x1 = 0.0839	0.266
x1 = 0.1332	0.392
x1 = 0.1874	0.473
x1 = 0.2391	0.548
x1 = 0.2901	0.6
x1 = 0.3377	0.66
x1 = 0.3804	0.698
x1 = 0.4029	0.722
x1 = 0.4617	0.712
x1 = 0.5304	0.685
x1 = 0.6116	0.604
x1 = 0.6917	0.477
x1 = 0.7918	0.287
x1 = 0.837	0.226
x1 = 0.9237	0.107

CCC(C)=O [butanone]
[2]
Settings	mass density [kg/m3]	vapor or sublimation pressure [kPa]
298.15 K	799.71	–
350.9 K	–	95.3

Settings	Normal boiling temperature [°C]
[2]	79.54

O=C1CCCCC1 [cyclohexanone]
[2]
Settings	mass density [kg/m3]	vapor or sublimation pressure [kPa]
303.15 K	937.58	–
426.3 K	–	95.3

Settings	Normal boiling temperature [°C]
[2]	155.69

CC(=O)CC(C)C [4-methylpentan-2-one]
[2]
Settings	mass density [kg/m3]	vapor or sublimation pressure [kPa]
298.15 K	796.33	–
386.7 K	–	95.3

Settings	Normal boiling temperature [°C]
[2]	117.39

CCC(C)=O [butanone] + C[S+](C)[O-]
[1]
Settings	excess molar enthalpy [kJ/mol]
x1 = 0.054	0.075
x1 = 0.1094	0.149
x1 = 0.1725	0.213
x1 = 0.2385	0.26
x1 = 0.2956	0.305
x1 = 0.3507	0.348
x1 = 0.4007	0.373
x1 = 0.4448	0.392
x1 = 0.4881	0.395
x1 = 0.5787	0.404
x1 = 0.6433	0.361
x1 = 0.7077	0.308
x1 = 0.7797	0.243
x1 = 0.856	0.149
x1 = 0.9297	0.0565

C[S+](C)[O-] [dimethyl sulfoxide]
[2]
Settings	mass density [kg/m3]	vapor or sublimation pressure [kPa]
298.15 K	1095.37	–
461 K	–	95.3

Settings	Normal boiling temperature [°C]
[2]	189.04
